Results on twelve molecules are retold here after patent US20180217163A1, “TREATMENT OF NEURODEGENERATIVE CONDITIONS USING PKC ACTIVATORS AFTER DETERMINING THE PRESENCE OF THE APOE4 ALLELE” (priority 2015, published 2018).

In series [1] the test system is PKC. Conditions: cited from earlier work.
Series [2] relates to HDAC4. Put plainly: HDAC4 nuclear translocation in SH-SY5Y cells (immunoblot). The class given is cell-based, human. The method, then:
(§1) Human SH-SY5Y neuroblastoma cells (Sigma-Aldrich), were cultured in 45% F12K, 45% MEM, and 10% FBS. Cells were treated with cholesterol, ASPD, ApoE3/ApoE4+cholesterol, or PKC activators for 24 h. Cholesterol was dissolved in ethanol. ApoE (20 nM) and cholesterol (100 μM) were mixed separately into the cultures. To block the ApoE receptors, cells were treated with RAP for 30 min before adding ApoE. Human primary neurons (ScienCell Research Laboratories) were plated on poly-L-lysine-coated plates and were maintained in neuronal medium (ScienCell Research Laboratories) supplemented with the neuronal growth supplements (ScienCell Research Laboratories). Half of the culture medium was changed every 3 d and fresh activators were added with every medium change to maintain viable neurons.
A PBS solution of 5×10^6 Human SH-SY5Y neuroblastoma cells was centrifuged and the resultant cell pellet was resuspended and washed twice with cold PBS. After the second wash, the cell pellet was resuspended in 500 μl of hypotonic buffer (20 mM Tris-Cl, pH 7.4, 10 mM NaCl, 3 mM MgCl2, and 1 mM PMSF) and incubated on ice for 15 min. Next, 25 μl of 10% NP-40 was added to the cell suspension and the sample was vortexed for 10 s. The homogenate was centrifuged for 10 min at 1000×g at 4° C. to obtain the cytoplasmic fraction (supernatant) and nuclear fraction (pellet). […] Protein concentration was measured using the Coomassie Plus (Bradford) Protein Assay kit (Pierce).
Protein in samples of the supernetant and nuclear fractions was separated by SDSPAGE in a 4-20% gradient Tris-Glycine gel (Invitrogen). […] The immunoblot proteins were detected using ImageQuant RT-ECL (GE Life Sciences) and densitometric quantification was performed using IMAL software, which was developed at our institution. […]
In general terms: In western blotting, separated proteins are transferred to a membrane and probed.

For series [3] the following is noted: in vivo; cited from earlier work.
The subject of series [4] is HDAC6. Put plainly: HDAC6 nuclear translocation in SH-SY5Y cells (immunoblot). Type of series: cell-based, human. As to the method:
as §1
A PBS solution of 5×10^6 Human SH-SY5Y neuroblastoma cells was centrifuged and the resultant cell pellet was resuspended and washed twice with cold PBS. After the second wash, the cell pellet was resuspended in 500 μl of hypotonic buffer (20 mM Tris-Cl, pH 7.4, 10 mM NaCl, 3 mM MgCl2, and 1 mM PMSF) and incubated on ice for 15 min. Next, 25 μl of 10% NP-40 was added to the cell suspension and the sample was vortexed for 10 s. The homogenate was centrifuged for 10 min at 1000×g at 4° C. to obtain the cytoplasmic fraction (supernatant) and nuclear fraction (pellet). After removing the supernetant, the nuclear pellet was resuspended in 50 μl of complete cell extraction buffer (100 mM Tris-Cl, pH 7.4, 2 mM Na3VO4, 100 mM NaCl, 1% Triton X-100, 1 mM EDTA, 10% glycerol, 1 mM EGTA, 0.1% SDS, 1 mM NaF, 0.5% deoxycholate, 20 mM Na4P2O7, and 1 mM PMSF) and incubated on ice for 30 min with vortexing at 10 min intervals. The nuclear lysate was centrifuged at 14,000×g for 30 min at 4° C. to obtain the nuclear fraction (supernatant). Protein concentration was measured using the Coomassie Plus (Bradford) Protein Assay kit (Pierce).
Protein in samples of the supernetant and nuclear fractions was separated by SDSPAGE in a 4-20% gradient Tris-Glycine gel (Invitrogen). The protein was then transferred to nitrocellulose membrane. The membrane was blocked with BSA at room temperature for 15 min and incubated with primary antibody overnight at 4° C. After incubation, the membrane was washed thrice (3×) with TBS-T (Tris-buffered saline-Tween 20) and further incubated with alkaline-phosphatase-conjugated secondary antibody (Jackson Immunoresearch Laboratories) at 1:10,000 dilution for 45 min. Following incubation, the membrane was washed 3× with TBS-T and developed using the 1-step NBT-BCIP substrate (Pierce). […] The immunoblot proteins were detected using ImageQuant RT-ECL (GE Life Sciences) and densitometric quantification was performed using IMAL software, which was developed at our institution. […]

The test system of series [5] is PKC. Conditions: cited from earlier work. The source holds these as a separate data set.
The target of series [6] is PKC. Conditions: [3H] phorbol dibutyrate competition; cited from earlier work.
The subject of series [7] is squamous cell carcinoma and melanoma. The note with it: used topically; cited from earlier work.
Series [8] concerns NCI 60 cell line screen. Conditions: cited from earlier work.
For series [9], the target named is protein kinase C. The note with it: (-)-enantiomer; cited from earlier work.
For series [10], the system named is PKCε mRNA. Put plainly: PKCε mRNA expression in SH-SY5Y cells (qRT-PCR). Conditions: ASPD-treated cells. The class given is cell-based, human. The method, then: as §1
qRT-PCR was performed and the results analyzed as described previously (Schmittgen et al., Analyzing real-time PCR data by the comparative C(T) method, Nat. Protoc., 3:1101-1108, 2008; Sen et al., 2012 supra). Total RNA (500 ng) was reverse transcribed using oligo(dT) and Superscript III (Invitrogen) at 50° C. for 1 h. The cDNA products were analyzed using a LightCycler 480 II (Roche) PCR machine and LightCycler 480 SYBR Green 1 master mix following the manufacturer's protocol. […]

The test system of series [11] is BDNF mRNA. Description: BDNF mRNA expression in SH-SY5Y cells (qRT-PCR). Type of series: cell-based, human. The note with it: ASPD-treated cells. As to the method:
as §1
qRT-PCR was performed and the results analyzed as described previously (Schmittgen et al., Analyzing real-time PCR data by the comparative C(T) method, Nat. Protoc., 3:1101-1108, 2008; Sen et al., 2012 supra). Total RNA (500 ng) was reverse transcribed using oligo(dT) and Superscript III (Invitrogen) at 50° C. for 1 h. The cDNA products were analyzed using a LightCycler 480 II (Roche) PCR machine and LightCycler 480 SYBR Green 1 master mix following the manufacturer's protocol. Primers for PKCε (forward primer: […], reverse primer: […], PKCα (forward-[…], reverse: […]), PKC (forward: […], reverse: CCGATG […]), GAPDH (forward: […], reverse: […]), and BDNF (forward: […], reverse: […]; Origene).
(In general: Quantitative PCR measures a nucleic acid by following its amplification.)

[12] abbreviates: ApoE4+ASPD induced translocation, 24 h.
Setting [13] is: A-ring bryologs, read-out: affinity for PKC.
Setting [14] is: RAP 100 nM, 30 min before ApoE+Chol 24 h.

Read-outs that look alike come from different tables or passages of the source.

With `CCCCCCCC(=O)O[C@H]1/C(=C/C(=O)OC)C[C@H]2C[C@H](CO)OC(=O)C[C@H](O)C[C@@H]3CCC[C@H](C[C@@H]4CCO[C@H](/C=C/C(C)(C)[C@]1(O)O2)O4)O3` [Analog 1], in [1], the “affinity for PKC” value is given as “highest affinity for PKC”. The Ki in [1] (read-out: PKC Affin) is 0.25 nM. Consider `CCC/C=C/C=C/C(=O)O[C@H]1/C(=C/C(=O)OC)C[C@H]2C[C@H]([C@@H](C)O)OC(=O)C[C@H](O)C[C@@H]3C[C@H](OC(C)=O)C(C)(C)C(O)(C[C@@H]4C/C(=C/C(=O)OC)C[C@H](/C=C/C(C)(C)[C@]1(O)O2)O4)O3` [Bryostatin-1], for which the “reduction of nuclear import of HDAC4” value in series [2] (setting [12]) is given as 40±8.4%. Moreover, in series [3], the “dose exhibiting no toxicity” value was 20 μg/week and the “dose that may be associated with muscle pain” value is on record as “more than 35 μg/week”. Further, in [4] (setting [12]), the “reduction in nuclear HDAC6” value was determined as 46±9.2%.

`CCC1CC1CC1CC1CC1CC1CC1CC1CC1CC1CC1CC1CCC(=O)OC` (stereo not shown) [DHA-CP6, cyclopropanated docosahexaenoic acid methyl ester]: the effective concentration in series [5] is 10 nM.

`CC1=C[C@]23C(=O)[C@@H](C=C(COC(=O)c4ccccc4)[C@@H](O)[C@]2(O)[C@H]1OC(=O)c1ccccc1)[C@H]1[C@@H](C[C@H]3C)C1(C)C` [Ingenol 3,20-dibenzoate]: in series [6], the Ki is 240 nM.

In the case of `C/C=C(/C)C(=O)O[C@H]1C(C)=C[C@]23C(=O)[C@@H](C=C(CO)[C@@H](O)[C@]12O)[C@H]1[C@@H](C[C@H]3C)C1(C)C` [Ingenol-3-angelate], the antitumor activity entry in [7] is on record as “exhibits antitumor activity”.

For `CC1=CC[C@H](C)C(C)(C)[C@@H]1/C=C/C(C)=C/CC[C@@]1(CO)[C@H](CCCO)/C(=C(/C)C=O)CC[C@]1(C)O` [Iripallidal], the “GI50 (concentration required to inhibit growth by 50%)” value in [8] was “from micromolar to nanomolar range”. Regarding `CCCCCCCCc1ccc2c3c(c[nH]c13)C[C@@H](CO)NC(=O)[C@H](C(C)C)N2C` [Octylindolactam V], the concentration giving a half-maximal response (EC50) in series [9] is 29 nM. Regarding `CCCCCCCC(=O)OC1C(=CC(=O)OC)CC2CC(CO)OC(=O)CC(O)CCOC(C(C)(C)C)CC3CCOC(C=CC(C)(C)C1(O)O2)O3` (stereo not shown) [bryolog 3], in series [1] (setting [13]), the Ki was 6.5 nM. Consider `CCCCCCCC(=O)OC1C(=CC(=O)OC)CC2CC(CO)OC(=O)CC(O)CCOC(c3ccccc3)CC3CCOC(C=CC(C)(C)C1(O)O2)O3` (stereo not shown) [bryolog 4], for which the Ki in series [1] (setting [13]) was 2.3 nM. Regarding `CCCCCCCC(=O)OC1C(=CC(=O)OC)CC2CC(CO)OC(=O)CC(O)CCOC(CCCc3ccc(Br)cc3)CC3CCOC(C=CC(C)(C)C1(O)O2)O3` (stereo not shown) [bryolog 5], the Ki in series [1] (setting [13]) was 1.9 nM. In the case of “ASPD+Chol: amyloid-β amylospheroids prepared from Aβ1-42, plus cholesterol”, in series [10], the “PKCε mRNA levels” value came out at 0.58±0.06 fold. Moreover, in [11], the “BDNF mRNA levels” value was 0.62±0.05 fold. Moreover, the “HDAC6 in the nucleus, percentage of total protein” value in series [4] (24 h, immunoblot) came out at 21.7±2.8%.

B1: RAP: recombinant human receptor-associated protein, ApoE receptor binding protein, from Molecular Innovations (protein, UniProt P30533 35-357, looked up)
Alpha-2-macroglobulin …: YSREKNQPKPSPKRESGEEFRMEKLNQLWEKAQRLHLPPVRLAELHADLKIQERDELAWKKLKLDGLDEDGEKEARLIRNLNVILAKYGLDGKKDARQVTSNSLSGTQEDGLDDPRLEKLWHKAKTSGKFSGEELDKLWREFLHHKEKVHEYNVLLETLSRTEEIHENVISPSDLSDIKGSVLHSRHTELKEKLRSINQGLDRLRRVSHQGYSTEAEFEEPRVIDLWDLAQSANLTDKELEAFREELKHFEAKIEKHNHYQKQLEIAHEKLRHAESVGDGERVSRSREKHALLEGRTKELGYTVKKHLQDLSGRISRARHNEL
As for B1, the “effect of RAP pretreatment on ApoE-mediated nuclear translocation of HDAC4” value in series [2] (setting [14]) was “abolished the effects of ApoE3+Chol and ApoE4+Chol”. Further, the “effect of RAP pretreatment on ApoE-mediated nuclear translocation of HDAC6” value in series [4] (setting [14]) is “abolished the effects of ApoE3+Chol and ApoE4+Chol”.

A word on the EC50: it is the concentration needed to bring the measured effect to its halfway point.
